Experimental data: article PMC7268545, “Development of a QPatch-Automated Electrophysiology Assay for Identifying TMEM16A Small-Molecule Inhibitors” (Assay and Drug Development Technologies, 2020)
Where two headings read alike, the source gives them in different places.

What was measured:
[1] = molecular target: T1, TMEM16A (Homo sapiens, UniProt Q5XXA6); assay: QPatch-48 assay on HEK293T-derived cell line with doxycycline-induced expression; type: cell-based; details: 30 μM; expression induced with 10 ng/mL doxycycline
T1 construct: expressed in transfected cells; host or cells: HEK293T-derived, doxycycline-inducible
T1 sequence (Q5XXA6 1-986): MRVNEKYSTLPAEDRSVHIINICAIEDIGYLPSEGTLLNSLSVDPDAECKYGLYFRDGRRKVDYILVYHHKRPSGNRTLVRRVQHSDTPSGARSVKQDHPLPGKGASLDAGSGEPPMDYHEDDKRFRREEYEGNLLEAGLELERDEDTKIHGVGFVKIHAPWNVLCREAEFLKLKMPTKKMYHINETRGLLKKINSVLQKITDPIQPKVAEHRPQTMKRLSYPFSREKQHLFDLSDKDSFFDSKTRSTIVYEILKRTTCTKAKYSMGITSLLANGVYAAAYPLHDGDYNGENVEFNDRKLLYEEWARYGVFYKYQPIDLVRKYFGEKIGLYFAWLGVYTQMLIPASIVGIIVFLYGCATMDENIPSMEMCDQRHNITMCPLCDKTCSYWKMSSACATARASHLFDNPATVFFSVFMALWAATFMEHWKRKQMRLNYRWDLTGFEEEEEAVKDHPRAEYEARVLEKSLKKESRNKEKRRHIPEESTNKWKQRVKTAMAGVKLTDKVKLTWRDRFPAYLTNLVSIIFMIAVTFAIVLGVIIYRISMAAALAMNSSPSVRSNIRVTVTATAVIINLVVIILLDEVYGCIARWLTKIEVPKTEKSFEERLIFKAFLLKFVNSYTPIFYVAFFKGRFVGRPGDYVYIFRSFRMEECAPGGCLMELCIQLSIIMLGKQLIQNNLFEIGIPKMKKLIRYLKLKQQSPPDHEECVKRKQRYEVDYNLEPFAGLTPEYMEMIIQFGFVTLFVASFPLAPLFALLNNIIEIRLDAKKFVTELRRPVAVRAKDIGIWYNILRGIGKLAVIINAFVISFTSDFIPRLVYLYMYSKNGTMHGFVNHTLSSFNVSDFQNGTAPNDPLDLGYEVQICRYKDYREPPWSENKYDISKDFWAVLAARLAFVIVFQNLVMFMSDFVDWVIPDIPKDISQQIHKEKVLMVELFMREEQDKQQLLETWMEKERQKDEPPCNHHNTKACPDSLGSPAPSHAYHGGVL
Method: In addition, another cell line that was HEK293T-derived and induced expression of TMEM16A on addition of 10 ng/mL of doxycycline also performed well on the assay. […] These two other cell lines were run on the machine using the predefined parameters that were optimized with the original cells, including the cell preparation protocol. Therefore, it seems that this assay is easily transferable to any cell line expressing TMEM16A.

[2] = molecular target: T2, human ANO1 channel (isoform acd) (Homo sapiens, UniProt Q5XXA6); assay: QPatch-48 automated whole-cell electrophysiology, cumulative five-concentration single-addition protocol; type: cell-based
T2 construct: host or cells: HEK293T
T2 sequence (Q5XXA6 1-986): T1 sequence (Q5XXA6 1-986)
Method: HEK293T cells stably expressing the human ANO1 channel (isoform acd) were obtained from Scottish Biomedical. Cells were cultured in Sigma Minimum Essential Media containing 10% heat-inactivated fetal bovine serum, 1% penicillin/streptomycin, 1% glutamine, and […] geneticin. Cells were maintained in a 37°C, 5% CO2 environment. Cells were passaged every 3 days after they had reached ∼70% confluency and were not allowed to reach a density greater than 1–2 × 10^5 cells/cm^2 during routine culture. When subculturing, cells were rinsed once with room temperature 1 × phosphate-buffered saline (PBS; Ca^2+/Mg^2+ free), lifted with TrypLE Express, resuspended in prewarmed growth media, and counted using a hemocytometer. Cells were then plated in T150 flasks at a density of 2.9 × 10^4 cells/cm^2 to be either used in the assay or subcultured 72 h later.
On the day of the experiment, cells plated at a density of 2.9 × 10^4 cells/cm^2 72 h prior should be ∼70%–80% confluent. After cells were rinsed with prewarmed 1 × PBS (Ca^2+/Mg^2+ free), 3 mL of room temperature Detachin solution (Genlantis) was added to the flask and tilted gently two to three times to cover all the cells. Approximately 2 mL of Detachin was aspirated from the flask, leaving 1 mL on the cells, and then placed in the 37°C incubator for 5 min. Once cells had rounded up, the cells were dislodged by tapping the flask gently. The cells were then resuspended in 5 mL of warm serum-free media (EX-CELL ACF CHO Medium; Sigma; supplemented with 4 mM L-glutamine and 10 mM HEPES). A glass Pasteur pipette with a rubber bulb was then used to gently dissociate the cells from one another. Detachin will often leave cells as doublets or clumps, conditions that will disrupt seal formation on the QPatch. The cells were triturated ∼30 times and then, still using the Pasteur pipette, transferred into the QPatch Cell Hotel. This ensures that cells detach from one another leaving a suspension of single cells. A QStirrer was added to the Cell Hotel and the cell suspension was immediately placed on the QPatch device. Cells were utilized within 15 min.
Compounds were reconstituted in dimethyl sulfoxide (DMSO; Sigma) as 10 mM stock solutions. An automated dilution machine set up the microtiter plate (MTP ) by making 1:5 dilutions from a starting concentration of 30 μM. The concentration of DMSO was equal for all concentrations tested. Each MTP contained one row of a negative control (DMSO) and a positive control (benzbromarone). A total of eight compounds were run at a time. All compounds tested were produced in-house.
Whole-cell patch-clamp experiments were performed on a QPatch-48-automated electrophysiology platform (Sophion Biosciences) using the 48-channel, single-hole QPlate (resistance 2.0 ± 0.4 MΩ). The external buffer (in mM) was 140 NaCl, 4 KCl, 2 CaCl2, 1 MgCl2, 10 HEPES, 10 glucose, pH 7.4 (osmolarity = 300), and the internal buffer (in mM) was 110 CsCl, 20 TEA-Cl, 5.374 CaCl2, 1.75 MgCl2, 10 EGTA, 10 HEPES, 4 Na2ATP, pH 7.2 (osmolarity = 310). Cell positioning was set to a 5-s wait time with a positioning pressure of −60 mbar and a positioning time-out of 60 s. Resistance was set to increase 750% to ensure the success of positioning. To obtain a seal, pressure was increased to −70 mbar with an allowed pressure of −130 to −20 mbar and a holding pressure of −20 mbar. The holding potential was set to −70 mV and a 240-s time-out was set. The minimum seal resistance was set to 0.02 GΩ. To go whole cell, five 1-s suction pulses were applied starting at −180 mbar and increasing with −40 mbar increments with a pulse period of 10 s. Suction ramp and voltage zap protocols were kept standard, according to the default HEK cell settings. […] The suction ramp order of use was set to 2 with a ramp amplitude of −450 mbar and a ramp slope of 100 ms/mbar.
Once established in whole-cell configuration, cells are clamped to a holding potential (Vhold) of 0 mV.

[3] = half plate (24-well format), cumulative single-addition, n = 5, read-out: average IC50 (mean ± SD)
[4] = independent experiment 3, read-out: IC50s for independent experiments 3
[5] = independent experiment 4, read-out: IC50s for independent experiments 4
[6] = independent experiment 5, read-out: IC50s for independent experiments 5

Structure (SMILES) | block of currents [1] | IC50 ([2]; IC50s for independent experiments 1, independent experiment 1, block at +100 mV, 250 nM internal free-calcium) | IC50 ([2]; IC50s for independent experiments 2, independent experiment 2) | IC50 ([2]; full 48-well plate format (with rundown), n = 1, read-out: IC50, full 48-well plate format) | IC50 [2, 3] | IC50 [2, 4] | IC50 [2, 5] | IC50 [2, 6] | IC50 ([2]; QPatch, 1-min incubations, read-out: concentration inhibiting 50% of channel current) | IC50 ([2]; independent experiment 1, block at +100 mV, 250 nM internal free-calcium, read-out: IC50s for independent experiments 1) | IC50 ([2]; independent experiment 2, read-out: IC50s for independent experiments 2)
CCc1oc2ccccc2c1C(=O)c1cc(Br)c(O)c(Br)c1 [Benzbromarone] | fully blocked | 3.45 µM | 1.51 µM | 0.73 µM | 2.54 ± 0.94 µM | 1.31 µM | 2.3 µM | 3.18 µM | – | – | –
O=C(Nc1ccc([N+](=O)[O-])cc1Cl)c1cc(Cl)ccc1O [Niclosamide] | – | – | – | – | 1.6 ± 0.39 µM | 1.05 µM | 2.09 µM | 1.81 µM | ~1 µM | 1.62 µM | 1.43 µM
